{
  "source": "patent US10806711B2",
  "about": "(priority 2011, dated 2020)",
  "key": {"healthy pig model": {"test_system": "healthy pig model", "test": "Cardiac function by echocardiography in healthy porcine model", "type": "in vivo"}, "TRPV2^+/− mice": {"test_system": "TRPV2^+/− mice", "test": "Contractility by echo after IP probenecid in TRPV2+/− mice", "type": "in vivo, mouse", "details": "100 mg/kg", "procedure": "WT, TRPV2^+/−, and TRPV2^−/− mice were monitored by echo for 30 minutes after injection as described below. Echocardiography—All echocardiographic studies were performed with a Vevo 2100 Ultrasound system (Visualsonics, Toronto Calif.) with an MS400 probe (30 MHz centerline frequency) and were post-processed at a separate workstation with Vevostrain software (Vevo 2100, v1.1.1 B1455, Visualsonic, Toronto, Canada). Images were obtained from PSLAX and short axis (SAX) views at depths between 2 and 10 mm in both M-mode and B-mode. All studies on mice exposed to I/R injury included M-mode, B-mode in PSLAX and strain imaging in SAX. While for the contractility studies, only M-mode measurements were obtained from the PSLAX. Strain imaging was performed from the B-mode images and regional radial strain and circumferential displacement were measured by regional wall and summed average from the SAX images. From the M-mode images, left ventricular cavity size and wall thickness was measured and the ejection fraction (EF) and fractional shortening (FS) calculations were obtained using the Vevo software. […] In addition, the average change from baseline for each time point between 5 and 30 minutes was determined for each mouse, with measurements being taken every 5 minutes. […]"}, "[1]": {"test_system": "phospholamban (PLN) and the ryanodine receptor (RyR), NCX, SERCA2a", "test": "Western blot of calcium handling proteins in Langendorff hearts", "design": "species or system mouse", "source_text": "Western Blot Analysis—WT hearts used for protein expression were isolated from control mice (C57, 12-16 weeks old) from the Langendorff experiments. Total protein for calcium handling proteins was isolated by homogenizing whole hearts in an ice-cold buffer containing (in mM): 80 Imidazole, 300 sucrose, 1 DTT, 10 sodium metabisulfite, the protease inhibitor cocktail P8340 (Sigma, St. Louis, Mo.) and the phosphatase inhibitor cocktail set II (EMD, Merck, Darmstadt, Germany). Protein concentrations were determined using the BCA Protein Assay kit (Pierce, Thermo Scientific, Rockford, Ill.). Aliquots of protein were separated on SDS-PAGE gels (Novex gels, Invitrogen, Eugene, Oreg.) and then transferred to nitrocellulose membranes (Bio-Rad, Hercules, Calif.) and blocked with 5% BSA. The membranes were analyzed with primary antibodies. When appropriate, the membranes were cut in half to allow two different primary antibodies to be used. The top half would be used for one of the Ca^2+ handling proteins and the bottom half (less than 60 kD) would be used for the normalization protein, actin. In circumstances where it wasn't appropriate to cut the membrane, as the two proteins were too close in size, the membranes were stripped after the first protein. Membranes were also stripped between primary antibodies for phosphorylated proteins and corresponding total protein."}, "C57 WT mice": {"test_system": "C57 WT mice", "test": "Echocardiographic evaluation of contractility (EF) after bolus IV probenecid", "type": "in vivo, mouse", "details": "for peak change in EF: WT mice", "procedure": "Echocardiographic evaluation. In order to obtain a dose response curve, male C57 WT (n=39) mice 12-16 weeks of age were anesthetized with isoflurane while intravenous jugular access (IV) was obtained under a microscope as previously described. Subsequently, an echocardiographic study with both M-mode and B-mode was obtained in parasternal long axis (PSLAX) as described below. […] Echocardiography—All echocardiographic studies were performed with a Vevo 2100 Ultrasound system (Visualsonics, Toronto Calif.) with an MS400 probe (30 MHz centerline frequency) and were post-processed at a separate workstation with Vevostrain software (Vevo 2100, v1.1.1 B1455, Visualsonic, Toronto, Canada). Images were obtained from PSLAX and short axis (SAX) views at depths between 2 and 10 mm in both M-mode and B-mode. All studies on mice exposed to I/R injury included M-mode, B-mode in PSLAX and strain imaging in SAX. While for the contractility studies, only M-mode measurements were obtained from the PSLAX. Strain imaging was performed from the B-mode images and regional radial strain and circumferential displacement were measured by regional wall and summed average from the SAX images. From the M-mode images, left ventricular cavity size and wall thickness was measured and the ejection fraction (EF) and fractional shortening (FS) calculations were obtained using the Vevo software. The change in the EF, FS, as well as strain derived parameters was obtained by subtracting the baseline value from each individual subject against subsequent time-points. In addition, the average change from baseline for each time point between 5 and 30 minutes was determined for each mouse, with measurements being taken every 5 minutes. These averages were compared between the different groups."}, "[2]": {"test_system": "isolated ventricular myocytes", "test": "Myocyte Ca2+ transient and cytosolic Ca2+ measurement", "type": "cell-based, mouse", "procedure": "Isolation of ventricular myocytes—Hearts from WT mice (12-week old) were perfused on the Langendorff system with a modified Krebs-Henseleit buffer (KHB) composed of (mM) NaCl 118, KCl 5.4, HEPES 10, NaH2PO4 0.33, MgCl2 2, glucose 10, taurine 30, butanedione monoxime 10 (pH=7.4). Then an enzyme solution (KHB containing 0.7 mg/ml type II collagenase, 0.1% BSA and 25 μM CaCl2) was used to digest the hearts for 10 min. Finally, ventricles of the hearts were excised, minced and filtered to obtain isolated cells. After sufficient sedimentation, the supernatant was removed and the cells were resuspended.\nMyocyte Ca^2+ transient and cytosolic Ca^2+ measurement—Myocytes were loaded with Fluo-4 acetoxymethyl ester (7 μM) for 20 min at room temperature, followed by a 10 min wash with Tyrode's solution, and then placed onto a plexiglass chamber for recording. For Ca^2+ transient measurements, myocytes were excited under 0.5 Hz and 3 Hz field stimulation, and the fluorescence signals were obtained using a Nikon TE 2000 microscope and collected through an InCyt Standard photometry system. For cytosolic Ca^2+ analysis in quiescent myocytes, a Zeiss LSM 510 confocal microscope was used to record fluorescent images from resting myocytes. Line-scan mode was applied at 3.07 ms intervals with 512 pixels spaced at 0.056 μm. Drugs were dissolved in Tyrode's solution and perfused into the chamber. Images of myocytes were recorded every 30 s after drug application. Data analysis was performed using Clampfit 9.2 and Image J 1.44 software.\nWater soluble probenecid was used for all of the myocyte experiments."}},
  "note": "Entries after “also recorded” stand apart in the source; their conditions may differ.",
  "data": [
    {"smiles": "CCCN(CCC)S(=O)(=O)c1ccc(C(=O)O)cc1", "note": "[probenecid]", "values": [
      {"measurement": "cardiac function (EF) by echocardiography", "setting": "healthy pig model; bolus of 5 mg/kg IV, 5 mg/kg", "value": "rapid increase in EF"},
      {"measurement": "cardiac function by echocardiography", "setting": "healthy pig model; continuous drip 5 mg/kg/hr (first 60 minutes) and 10 mg/kg/hr (second thirty minutes)", "value": "improves function; also recorded: improvement in cardiac function"},
      {"measurement": "decrease in contractility response versus WT", "setting": "TRPV2^+/− mice", "value": "approximately 50%"},
      {"measurement": "expression levels of NCX and SERCA2a", "setting": "[1]; hearts after 10^−6 M perfusion, data not shown", "value": "no changes were found in the expression levels"},
      {"measurement": "amount of phosphorylated or total phospholamban or ryanodine receptor", "setting": "[1]; hearts after 5 minute perfusion of 10^−6 M", "value": "no significant changes"},
      {"measurement": "peak change in EF", "setting": "C57 WT mice; 75 mg/kg bolus IV", "value": "5.26±3.35"},
      {"measurement": "peak change in EF", "setting": "C57 WT mice; 100 mg/kg bolus IV", "value": "8.40±2.80"},
      {"measurement": "time EF remained at an elevated state", "setting": "C57 WT mice; 200 mg/kg IV, n=5", "value": "at least 1 hour"},
      {"measurement": "average increase in EF over baseline", "setting": "C57 WT mice; 200 mg/kg IV, n=5, evaluated for a longer period (at least 1 hour)", "value": "8.9±2.57"},
      {"measurement": "echocardiographic changes (FIG. 1B)", "setting": "C57 WT mice; FIG. 1B legend", "value": "did not result in any echocardiographic changes"},
      {"measurement": "time after bolus injection at which increased contractility was noted", "setting": "C57 WT mice; all doses at or above 75 mg/kg IV", "value": "≤ 5", "unit": "min"},
      {"measurement": "estimated EC50 of dose dependent increase in contractility (EF)", "setting": "C57 WT mice; bolus IV, measured at 5 minute intervals for 30 minutes total", "value": 49.33, "unit": "mg/kg"},
      {"measurement": "decay rate (Tau) of Ca2+ transient", "setting": "[2]; 0.1 μM", "value": "not affected"},
      {"measurement": "time to peak of cytosolic Ca2+ after treatment", "setting": "[2]; 0.1 μM", "value": "approximately 5 min"},
      {"measurement": "Ca2+ spark frequency", "setting": "[2]; 0.1 μM for 5 minutes, from 1.45±0.09", "value": "2.99±0.24"},
      {"measurement": "increase of cytosolic Ca2+ compared to control at steady state", "setting": "[2]; 0.1 μM, quiescent myocytes", "value": "2.5±0.2", "unit": "fold"},
      {"measurement": "Ca2+ transient amplitude (ΔF/F0)", "setting": "[2]; 0.1 μM, from 3.35±0.20, P<0.001", "value": "4.25±0.25"}
    ]}
  ]
}
